Data reported in PubChem BioAssay (NCI).
Values joined by “and” are separate entries in the source; they are usually repeats but may differ in a detail not shown here. Equal entries are not always repeated.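 Method: 48-hour compound exposure of cells in 96-well plates, five concentrations, linear interpolation of endpoints. GI50 = concentration required for 50% inhibition of growth. TGI denotes the concentration required for complete inhibition of growth.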

Tests used:
Assay in all cases: inhibition of tumour cell growth, NCI panel, 48 h
[1] = test system: OVCAR-8 ovarian
[2] = test system: U251 CNS
[3] = test system: OVCAR-3 ovarian
[4] = test system: CAKI-1 renal
[5] = test system: NCI-H522 lung
[6] = test system: HCT-116 colon
[7] = test system: SF-539 CNS
[8] = test system: SF-268 CNS
[9] = test system: OVCAR-4 ovarian
[10] = test system: UACC-257 melanoma

Compound: CCCCCN(CCCCC)CC(O)c1cc2c(c3ccccc13)CCCC2 (stereo not given)
- GI50 [1]: 11.3 µM and 14.9 µM
- TGI [1]: 26.1 µM and 32.9 µM
- GI50 [2]: 6.33 µM and 11.5 µM
- TGI [2]: 20.3 µM and 29.6 µM
- GI50 [3]: 6.22 µM and 10.5 µM
- TGI [3]: 18.7 µM and 24.1 µM
- GI50 [4]: 3.44 µM and 4.29 µM
- TGI [4]: 10.9 µM and 20.2 µM
- GI50 [5]: 2.02 µM and 3.24 µM
- TGI [5]: 7.72 µM and 13.4 µM
- GI50 [6]: 2.7 µM and 2.24 µM
- TGI [6]: 12.8 µM and 13.1 µM
- GI50 [7]: 4.88 µM and 10.9 µM
- TGI [7]: 16.9 µM and 23.6 µM
- GI50 [8]: 11.3 µM and 16.5 µM
- TGI [8]: 23.9 µM and 36.8 µM
- GI50 [9]: 3.16 µM and 9.19 µM
- TGI [9]: 16 µM and 30.1 µM
- GI50 [10]: 4.88 µM and 13.8 µM
- TGI [10]: 17.5 µM and 30.2 µM

Compound: O=C1C[C@@H]2CCCC[C@@H]2C12SCCS2
- TGI [1]: > 100 µM
- TGI [2]: > 100 µM
- TGI [3]: > 100 µM
- TGI [4]: > 100 µM
- TGI [5]: > 100 µM
- TGI [6]: > 100 µM
- TGI [7]: > 100 µM
- TGI [8]: > 100 µM
- TGI [9]: > 100 µM
- TGI [10]: > 100 µM

Compound: O=C(CN1C(=O)c2ccccc2C1=O)C(O)CN1C(=O)c2ccccc2C1=O (stereo not given)
- TGI [1]: > 100 µM
- TGI [2]: 91.5 µM
- TGI [3]: > 100 µM
- TGI [4]: > 100 µM
- TGI [5]: > 100 µM
- TGI [6]: > 100 µM
- TGI [7]: > 100 µM
- TGI [8]: 88.1 µM
- TGI [9]: > 100 µM
- TGI [10]: > 100 µM

Compound: CCCCCCCCCCCC[n+]1ccc(C(N)=O)cc1
- GI50 [1]: 3.34 µM
- TGI [1]: 13.1 µM
- GI50 [2]: 1.14 µM
- TGI [2]: 3.55 µM
- GI50 [3]: 2.28 µM
- TGI [3]: 8.72 µM
- GI50 [4]: 10.7 µM
- TGI [4]: 26.2 µM
- GI50 [5]: 2.33 µM
- TGI [5]: 8.38 µM
- GI50 [6]: 4.58 µM
- TGI [6]: 20.5 µM
- GI50 [7]: 2.36 µM
- TGI [7]: 6.31 µM
- GI50 [8]: 2.78 µM
- TGI [8]: 11.5 µM
- GI50 [9]: 4.73 µM
- TGI [9]: 17.5 µM
- GI50 [10]: 4.24 µM
- TGI [10]: 17.8 µM

Compound: OCCNCCNc1c2ccccc2nc2oc3ccccc3c12
- GI50 [1]: 9.46 µM
- TGI [1]: > 100 µM
- GI50 [2]: 12.5 µM
- TGI [2]: 30.2 µM
- GI50 [3]: 12.5 µM
- TGI [3]: 42.8 µM
- GI50 [4]: 11.9 µM
- TGI [4]: 56.4 µM
- GI50 [5]: 7.73 µM
- TGI [5]: 23.7 µM
- GI50 [6]: 4.61 µM
- TGI [6]: 16.2 µM
- GI50 [7]: 8.04 µM
- TGI [7]: 21 µM
- GI50 [8]: 7.33 µM
- TGI [8]: 28.3 µM
- GI50 [9]: 10.2 µM
- TGI [9]: 34.6 µM
- GI50 [10]: 15.6 µM
- TGI [10]: 33.2 µM

Compound: Clc1ccc2c(c1)-c1ccccc1C1=NCCN12
- GI50 [1]: 1.22 µM
- TGI [1]: 5.4 µM
- GI50 [2]: 1.98 µM
- TGI [2]: 7.14 µM
- GI50 [3]: 2.3 µM
- TGI [3]: 6.16 µM
- GI50 [4]: 1.83 µM
- TGI [4]: 5.8 µM
- GI50 [5]: 1.52 µM
- TGI [5]: 3.48 µM
- GI50 [6]: 0.719 µM
- TGI [6]: 6.86 µM
- GI50 [7]: 3 µM
- TGI [7]: 10.4 µM
- GI50 [8]: 1.91 µM
- TGI [8]: 5.42 µM
- GI50 [9]: 1.99 µM
- TGI [9]: 7.35 µM
- GI50 [10]: 1.54 µM
- TGI [10]: 3.3 µM

Compound: N=C(N)c1ccc(-c2ccc(-c3cccs3)s2)nc1
- GI50 [1]: 1.59 µM
- TGI [1]: 4.06 µM
- GI50 [2]: 1.66 µM
- TGI [2]: 3.35 µM
- GI50 [3]: 0.234 µM
- TGI [3]: 2.31 µM
- GI50 [4]: 2.13 µM
- TGI [4]: 6.83 µM
- GI50 [5]: 1.61 µM
- TGI [5]: 3.44 µM
- GI50 [6]: 1.38 µM
- TGI [6]: 2.79 µM
- GI50 [7]: 1.57 µM
- TGI [7]: 3.08 µM
- GI50 [8]: 2.74 µM
- TGI [8]: 10.7 µM
- GI50 [9]: 0.944 µM
- TGI [9]: 3.32 µM
- GI50 [10]: 1.74 µM
- TGI [10]: 3.5 µM

Compound: O=C(CCCCCCC(=O)Nc1ccc2c(c1)/C(=C/c1ccc[nH]1)C(=O)N2)NO
- GI50 [1]: 0.472 µM
- TGI [1]: > 89.4 µM
- GI50 [2]: 0.416 µM
- TGI [2]: 2.29 µM
- GI50 [3]: 0.354 µM
- TGI [3]: 5.51 µM
- GI50 [4]: 2.33 µM
- TGI [4]: > 100 µM
- GI50 [5]: 0.0829 µM
- TGI [5]: 0.891 µM
- GI50 [6]: 0.23 µM
- TGI [6]: 2.87 µM
- GI50 [7]: 0.603 µM
- TGI [7]: 16 µM
- GI50 [8]: 1.05 µM
- TGI [8]: 13.3 µM
- GI50 [9]: 1.27 µM
- TGI [9]: 52 µM
- GI50 [10]: 0.353 µM
- TGI [10]: 5.44 µM

Compound: NCCCCN(Cc1nc2ccccc2[nH]1)[C@H]1CCCc2cccnc21
- GI50 [1]: 20 µM
- TGI [1]: > 100 µM
- GI50 [2]: 11.3 µM
- TGI [2]: > 67.8 µM
- GI50 [3]: 15.3 µM
- TGI [3]: > 100 µM
- GI50 [4]: 16.1 µM
- TGI [4]: > 64.4 µM
- GI50 [5]: 19.8 µM
- TGI [5]: > 64.8 µM
- GI50 [6]: 6.81 µM
- TGI [6]: 51.3 µM
- GI50 [7]: 13.3 µM
- TGI [7]: 27.6 µM
- GI50 [8]: 9.71 µM
- TGI [8]: 97.3 µM
- GI50 [9]: 10.6 µM
- TGI [9]: > 82.7 µM
- GI50 [10]: 15.3 µM
- TGI [10]: 31.4 µM

Compound: Cc1ccc(C2=C(c3ccccc3)C(Br)(c3ccccc3)C(c3ccccc3)=C2c2ccc(C)cc2)cc1
- TGI [1]: > 100 µM
- TGI [2]: > 100 µM
- TGI [3]: > 100 µM
- TGI [4]: > 100 µM
- TGI [5]: > 100 µM
- TGI [6]: > 100 µM
- TGI [7]: > 100 µM
- TGI [8]: > 100 µM
- TGI [9]: > 100 µM
- TGI [10]: > 100 µM

Compound: O=C(N/N=C\c1ccc(N(CCCl)CCCl)cc1Cl)c1cccnc1
- GI50 [1]: 21.7 µM
- TGI [1]: > 88.8 µM
- GI50 [2]: 10.4 µM
- TGI [2]: 94.1 µM
- GI50 [3]: 3.37 µM
- TGI [3]: 14.3 µM
- GI50 [4]: 7.06 µM
- TGI [4]: 48.2 µM
- GI50 [5]: 21.4 µM
- TGI [5]: 86 µM
- GI50 [6]: 3.23 µM
- TGI [6]: 36.6 µM
- GI50 [7]: 33.1 µM
- TGI [7]: > 100 µM
- GI50 [8]: 23.4 µM
- TGI [8]: > 84 µM
- GI50 [9]: 5.28 µM
- TGI [9]: 38.5 µM
- GI50 [10]: 1.08 µM
- TGI [10]: 3.48 µM

Compound: c1ccc(SC(CCCCOC2CCCCO2)Sc2ccccc2)cc1 (stereo not given)
- TGI [1]: > 100 µM
- TGI [2]: > 100 µM
- TGI [3]: > 100 µM
- TGI [4]: > 100 µM
- TGI [5]: 53.8 µM
- TGI [6]: > 100 µM
- TGI [7]: > 100 µM
- TGI [8]: > 100 µM
- TGI [9]: > 100 µM
- TGI [10]: > 100 µM

Compound: COc1cccc2c(=O)c3c(sc12)c(NCCN(C)C)nc1ccccc13
- GI50 [1]: 1.26 µM
- TGI [1]: 2.93 µM
- GI50 [2]: 1.29 µM
- TGI [2]: 2.74 µM
- GI50 [3]: 1.61 µM
- TGI [3]: 3.22 µM
- GI50 [4]: 1.36 µM
- TGI [4]: 3.12 µM
- GI50 [5]: 1.36 µM
- TGI [5]: 3.02 µM
- GI50 [6]: 0.538 µM
- TGI [6]: 1.85 µM
- GI50 [7]: 1.61 µM
- TGI [7]: 3.01 µM
- GI50 [8]: 1.6 µM
- TGI [8]: 3.57 µM
- GI50 [9]: 1.57 µM
- TGI [9]: 3.68 µM
- GI50 [10]: 1.72 µM
- TGI [10]: 3.5 µM
